Results from US20070142306A1, “Strontium-based complexes, pharmaceutical compositions and dietetic products” (MEDESIS PHARMA SA, priority 2003, published 2007).
Values joined by “and” are separate entries in the source; they are usually repeats but may differ in a detail not shown here. Equal entries are not always repeated.

How the values were obtained:
female Wistar rats = experiment: Femoral head (epiphyseal) diameter / bone growth after 21 days rectal treatment; format: in vivo, rat
Method: (§1) Administration to female Wistar rats weighing 200 g.
Number of animals per group: 6 and 8.
Text complex: NP05 (composition produced according to the invention, in which only the quantity of strontium varies).
(§2) Volume of administration: 2 ml/kg.
(§3) Route of administration: Rectal route.
(§4) Dose frequency: Once a day—every 24 hours.
(§5) Treatment duration: 21 days.
(§6) The animals were sacrificed and the femoral bones were removed, cleaned of their tendinous and muscular attachments, then frozen.
The femoral epiphyseal diameter was measured.

[1] = Assay of strontium in femoral bones by atomic absorption spectrometry; format: in vivo, rat; conditions: 3 weeks treatment, 68.2 mg/kg/d
Method: as §1, §2, §3, §4, §5, §6
Strontium was then assayed in the bones by atomic absorption spectrometry.
The assay of strontium in bone was carried out.

osteoclast = conditions: cited from earlier work
rat model = conditions: administration for 8 weeks; cited from earlier work
osteoblast = conditions: cited from earlier work
postmenopausal women = conditions: 2 mg per day, two years; cited from earlier work
humans = conditions: in humans; cited from earlier work
animal = conditions: cited from earlier work

For `[Cl-].[Cl-].[Sr+2]` [Strontium chloride, strontium chloride], the “effect on bone growth” value (female Wistar rats; 3 weeks treatment, compared with control animals (NP05 also with the strontium chloride group)) was “no effect”, the “Diameter of femoral head, Mean” value (female Wistar rats; group mean, 68.2 mg/kg strontium metal, rectal, 21 days) was 4.01 millimeters and the “Diameter of femoral head, Femur 1” value (female Wistar rats; individual rats, 68.2 mg/kg strontium metal, rectal, once a day, 21 days) was 4 millimeters. The “Diameter of femoral head, Femur 2” value (female Wistar rats; individual rats, 68.2 mg/kg strontium metal, rectal, once a day, 21 days, 68.2 mg/kg) was 4 millimeters (7×) and 4.1 millimeters, the “strontium incorporation in bone compared with the controls” value [1] was 4 and the osteoclast multiplication (osteoclast) was “inhibition”. For the same compound, the “minimum dose stimulating bone growth” value (rat model) was 68.2 mg of strontium (metal) and the osteoblast proliferation (osteoblast) was “stimulation”.

For `N#Cc1c(N(CC(=O)[O-])CC(=O)[O-])sc(C(=O)[O-])c1CC(=O)[O-].[Sr+2].[Sr+2]` [strontium ranelate], the “bone alkaline phosphatase (marker of bone formation)” value (postmenopausal women) is listed as “significantly increased”, the “bone mineral density in the lumbar spine” value (postmenopausal women) is listed as “significant increase” and the “marker of bone resorption” value (postmenopausal women) is listed as “decreased”. The “amount necessary to obtain therapeutic activity” value (humans) was 2 g/day, the osteoclast multiplication (osteoclast) was “inhibition” and the “minimum dose stimulating bone growth” value (rat model) was 68.2 mg of strontium (metal). For the same compound, the osteoblast proliferation (osteoblast) was “stimulation”, the “dose required for therapeutic activity in animal studies” value (animal; as strontium ranelate, corresponding to 68.2 mg of strontium metal) was 200 mg per day and the “dose causing toxic effects (osteomalacic bone lysis)” value (animal; ranelate dose, four times the active dose) was “above 800 mg per day”.
